# Source: patent US10883143B2, “Compositions and methods for enhancing odorant receptor activity” (DUKE UNIVERSITY, priority 2009, dated 2021)
# Entries after “also recorded” stand apart in the source; their conditions may differ.
# Key:
# [1] = target: T1, OR-S6 coexpressed with M3 (Mus musculus, UniProt Q9ERZ3); test: CRE-luciferase reporter assay of OR activation in HEK293T cells; format: cell-based
# T1 construct: The open reading frames were amplified using Phusion polymerase; expressed in transfected cells; host or cells: HEK293T
# T1 sequence (Q9ERZ3 whole entry): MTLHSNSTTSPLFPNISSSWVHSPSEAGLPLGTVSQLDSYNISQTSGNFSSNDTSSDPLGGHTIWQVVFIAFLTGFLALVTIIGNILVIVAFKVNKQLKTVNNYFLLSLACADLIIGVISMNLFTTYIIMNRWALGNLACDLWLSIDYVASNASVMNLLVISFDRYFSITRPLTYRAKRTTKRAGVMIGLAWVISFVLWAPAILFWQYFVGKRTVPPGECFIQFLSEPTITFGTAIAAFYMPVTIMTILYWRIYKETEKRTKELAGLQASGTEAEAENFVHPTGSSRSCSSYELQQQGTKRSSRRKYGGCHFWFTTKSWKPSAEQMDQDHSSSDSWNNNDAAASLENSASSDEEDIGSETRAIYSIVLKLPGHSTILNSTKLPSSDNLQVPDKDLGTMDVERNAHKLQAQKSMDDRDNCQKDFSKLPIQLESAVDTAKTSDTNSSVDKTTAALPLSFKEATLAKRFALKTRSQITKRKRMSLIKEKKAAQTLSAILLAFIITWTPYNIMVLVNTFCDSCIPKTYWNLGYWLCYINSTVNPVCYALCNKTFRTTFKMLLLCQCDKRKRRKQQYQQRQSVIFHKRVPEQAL
# Protocol: (§1) Given that GPCRs that form heteromeric interactions often show functional co-modulation, experiments were conducted to determine if altering M3 activity directly affects the odor-mediated activation of ORs. […] HEK293T cells Hana3A cells were maintained in minimal essential medium (MEM) containing 10% fetal bovine serum (M10) and penicillin-streptomycin and amphotericin solution. Lipofectamine 2000 (Invitrogen) was used for transfection following manufacturer's protocols. […] Briefly, cAMP response element (CRE)-luciferase (Stratagene) was used to measure OR activation. […] Cells were plated on poly-D-lysine-coated 96-well plates (NUNC) 2 days prior to assay. Cells were transfected with ORs in either Hana3A or HEK293T cell lines along with various combinations of RTP1S, Ric-8b, M3, CRE-luciferase, and pRL-SV40. 18-24 hours after transfection, cells were rinsed with 50 μl of CD293 (Invitrogen) and stimulated with 25 μl of odorant solution dissolved in CD293. Cells were incubated for 4 hours at 37° C. and 5% CO2 before luciferase assays. Protocols for measuring luciferase and Renilla luciferase activities were as described by the manufacturer (Promega). Normalized luciferase activity was calculated with the formula (LN−Lmin)/(Lmax−Lmin), where LN is the luminescence of firefly luciferase in response to the odorant, Lmin is the minimum luciferase value on a plate or set of plates, and Lmax is the maximum luciferase value on a plate or set of plates. The data was analyzed with Microsoft Excel and GraphPad Prism 5. Odorants and muscarinic agonists and antagonists were from Sigma except for darifenacin, which was purchased from Santa Cruz.
# [2] = test system: OR-S6, RTP1S and M3 coexpressed; test: Alphascreen cAMP assay in HEK293T cells; format: cell-based, mouse
# Protocol: When OR, RTP1S, and M3 were coexpressed, the background level was slightly higher than other conditions.
# Alphascreen cAMP assay (Perkin Elmer) was used to measure changes of cAMP. Cells were plated on 96-cell plate (poly D lysine coated, NUNC). 24 hours after transfection, cells were washed in Hanks containing 5 mM HEPES, 0.1% BSA and 500 uM IBMX for 30 minutes. The cells were then stimulated with Hanks containing 5 mM HEPES, 0.1% BSA and 500 uM IBMX and corresponding chemicals. The stimulated cells were incubated for 10 min at room temperature before lysis. The manufacture's protocol was used to measure cAMP.
# [3] = test system: olfactory sensory neurons (OSNs); test: Calcium imaging of acutely dissociated OSNs stimulated with a mix of 10 odorants; format: cell-based, mouse; details: paired T-test
# [4] = test system: OR-S6 coexpressed with M3; test: CRE-luciferase reporter assay of OR activation in HEK293T cells; format: cell-based, mouse; details: HEK293T coexpressing OR-S6, RTP1S and M3 vs. without M3
# Protocol: as §1
# M3 = target: T2, M3 (Mus musculus, UniProt Q9ERZ3); test: Calcium imaging with HEK293T cells expressing M3; format: cell-based; details: carbachol 10^−7M
# T2 construct: The open reading frames were amplified using Phusion polymerase; expressed in transfected cells; host or cells: HEK293T
# T2 sequence (Q9ERZ3 whole entry): as above
# Source text: (§2) Since M3 potentiates OR signaling, the possibility that OR activation may also enhance M3 signaling was considered.
# OR-S6 = test: Calcium imaging with HEK293T cells expressing OR-S6 without M3; format: cell-based, mouse
# Protocol: as §2
# Calcium imaging with HEK293T cells was performed as described (see, e.g., Y. Ishimaru et al., Proc Natl Acad Sci USA 103, 12569 (Aug. 15, 2006); herein incorporated by reference in its entirety).
# [5] = test system: OR-S6 coexpressed with M3; test: Calcium imaging with HEK293T cells coexpressing OR-S6 and M3; format: cell-based, mouse; details: for calcium response to odor alone: OR-S6 and its cofactors (mRTP) coexpressed with M3, 10^−4M nonanedioic acid
# Source text: as §2
smiles,measurement,setting,value
CN1[C@@H]2CC[C@H]1C[C@@H](OC(=O)C(CO)c1ccccc1)C2 (stereo partly drawn) [atropine],OR-S6 activation by nonanedioic acid on co-stimulation with muscarinic ligand,[1],hindered the potentiation effect of M3
C[N+](C)(C)CCOC(N)=O [carbachol],"rise in cAMP following OR stimulation, costimulation with carbachol","[2]; carbachol 10^−7M, HEK293T transfected with OR-S6, RTP1S and M3",even more dramatic; also recorded: further stimulates production of cAMP
NC(=O)C(c1ccccc1)(c1ccccc1)[C@@H]1CCN(CCc2ccc3c(c2)CCO3)C1 [darifenacin],"odor-mediated calcium responses of OSNs (Fluo-4/Fura-red ratio, Anet)",[3]; 10^−7M antagonist with mix of 10 odorants each at 10^−5M,significantly attenuated
same,"odor-mediated calcium responses of OSNs (Fluo-4/Fura-red ratio, Anet)","[3]; 10^−7M antagonist with mix of 10 odorants each at 10^−5M, listed as darifenecin",attenuated odor-mediated responses of OSNs
C[C@H](CCC(=O)O)C[C@H](C)C[C@H](C)C(=O)/C=C(\O)[C@H](C)C[C@H](C)C/C=C/[C@@H](C)[C@@H](O)[C@@H](C)[C@@H](O)C[C@@H]1CC[C@@](C)([C@H]2CC[C@@](C)([C@@H](C)O)O2)O1 [ionomycin],CRE-luciferase reporter response without OR ligands,[4],reporter gene responses were not seen
same,CRE-luciferase reporter response without OR ligands,[4]; listed as Ionomycin,had no effect on OR activation
O=C(O)CCCCCCCC(=O)O [nonanedioic acid],cellular cAMP levels following stimulation with OR-S6 ligand,"[2]; cells coexpressing OR-S6, RTP1S and M3 vs. without M3",dramatic increase in cellular cAMP levels
same,calcium response,M3,No response was observed
same,calcium response,OR-S6; HEK293T cells expressing OR-S6 alone,No calcium response was observed
same,calcium response,OR-S6; cells coexpressing OR and Gα15olf (positive control),generate a calcium response
same,calcium response,"OR-S6; cells coexpressing OR and Gα15olf (positive control), listed as nonandioic acid",increase cellular calcium
same,calcium response to odor alone,[5],strong calcium response
same,calcium response to odor alone,[5]; listed as nonandioic acid,calcium level increases
same,calcium response,[5]; cells expressing both S6 and M3 in the absence of RTP,does not elicit a calcium response
O[Si](CCCN1CCCCC1)(c1ccc(F)cc1)C1CCCCC1 (stereo not drawn) [pfHHSiD],"odor-mediated calcium responses of OSNs (Fluo-4/Fura-red ratio, Anet)",[3]; 10^−6M antagonist with mix of 10 odorants each at 10^−5M,Equivalent results; also recorded: attenuated odor-mediated responses of OSNs
